Experimental findings from patent US7964628B2, “Fibrinogen receptor antagonists and their use” (Piramal Life Sciences Limited, priority 2003, dated 2011) are described below.

Molecules are shown by their SMILES. Counter-ions that a name gives are not always drawn.

A word on the melting point: it is the temperature, or range, at which the solid turns liquid. Compound `CCOC(=O)COc1cc(O)c(C(=O)CN2Cc3cc(C(=N)NO)ccc3C2=O)cc1OCC(=O)OCC` (hydrate or solvate) [Example 65, (2-Ethoxycarbonylmethoxy-5-hydroxy-4-{2-[5-(N-hydroxycarbamimidoyl)-1-oxo-1,3-dihydro-isoindol-2-yl]-acetyl}-phenoxy)-acetic acid ethyl ester] came in with a melting point of 186 to 188 °C.

Turning to `CCCOc1cc(OCC(=O)OCC)ccc1C(=O)CN1Cc2cc(C(=N)NO)ccc2C1=O` (hydrate or solvate) [Example 46, (4-{2-[5-(N-Hydroxycarbamimidoyl)-1-oxo-1,3-dihydro-isoindol-2-yl]-acetyl}-3-propoxy-phenoxy)-acetic acid ethyl ester], the melting point was 175 to 177 °C.

Consider `CCOC(=O)COc1ccc(C(=O)CN2Cc3cc(C(=N)NO)ccc3C2=O)cc1S(=O)(=O)CC` [Example 36, (2-Ethanesulfonyl-4-{2-[5-(N-hydroxycarbamimidoyl)-1-oxo-1,3-dihydro-isoindol-2-yl]-acetyl}-phenoxy)-acetic acid ethyl ester], for which the melting point fell in the range of 196 to 197 °C.

Take `CC(C)COC(=O)NC(=N)c1ccc2c(c1)CN(CC(=O)c1ccc(OCC(=O)OC(C)C)cc1)C2=O` (hydrate or solvate) [Example 7, (4-{2-[5-(Imino-isobutoxycarbonylamino-methyl)-1-oxo-1,3-dihydro-isoindol-2-yl]-acetyl}-phenoxy)-acetic acid isopropyl ester]: the melting point was 155 to 157 °C.

As to `CCOC(=O)COc1cc(O)c(C(=O)CN2Cc3cc(C(=N)NO)ccc3C2=O)cc1Cl` (hydrate or solvate) [Example 53, (2-Chloro-5-hydroxy-4-{2-[5-(N-hydroxycarbamimidoyl)-1-oxo-1,3-dihydro-isoindol-2-yl]-acetyl}-phenoxy)-acetic acid ethyl ester], the melting point was 227 to 228 °C.

In turn, `CCOC(=O)COc1cc(O)c(C(=O)CN2Cc3cc(C(=N)NO)ccc3C2=O)cc1CC` [Example 50, (2-Ethyl-5-hydroxy-4-{2-[5-(N-hydroxycarbamimidoyl)-1-oxo-1,3-dihydro-isoindol-2-yl]-acetyl}-phenoxy)-acetic acid ethyl ester] registered a melting point of 218 to 219 °C.

`CCCc1c(OCC(=O)O)ccc(C(=O)CN2Cc3cc(C(=N)N)ccc3C2=O)c1O` (as salt: trifluoroacetic acid salt) [Example 60, (4-{2-[5-Carbamimidoyl-1-oxo-1,3-dihydro-isoindol-2-yl]-acetyl}-3-hydroxy-2-propyl-phenoxy)-acetic acid] came in with a melting point of 222 to 223 °C.

Compound `CC(C)COC(=O)COc1ccc(C(=O)CN2Cc3cc(C(=N)NC(=O)OCC(C)C)ccc3C2=O)cc1` (hydrate or solvate) [Example 12, (4-{2-[5-(Imino-isobutoxycarbonylamino-methyl)-1-oxo-1,3-dihydro-isoindol-2-yl]-acetyl}-phenoxy)-acetic acid isobutyl ester] had a melting point of 140 to 141 °C.

Take `CCOC(=O)COc1ccc(C(=O)CN2Cc3cc(C(=N)N)ccc3C2=O)cc1SCC` (as salt: salt) (hydrate or solvate) [Example 33, (4-{2-[5-Carbamimidoyl-1-oxo-1,3-dihydro-isoindol-2-yl]-acetyl}-2-ethylsulfanyl-phenoxy)-acetic acid ethyl ester]: the melting point was in the range of 185 to 186 °C.

In turn, `CC(C)OC(=O)COc1ccc(C(=O)CN2Cc3cc(C(=N)NC(=O)OCc4ccccc4)ccc3C2=O)cc1` (hydrate or solvate) [Example 8, (4-{2-[5-(Benzyloxycarbonylamino-imino-methyl)-1-oxo-1,3-dihydro-isoindol-2-yl]-acetyl}-phenoxy)-acetic acid isopropyl ester] displayed a melting point of 156 to 158 °C.

For the compound `CCOC(=O)COc1ccc(C(=O)CN2Cc3cc(C(=N)N)ccc3C2=O)cc1OCC(=O)OCC` (as salt: salt) (hydrate or solvate) [Example 20, (4-{2-[5-Carbamimidoyl-1-oxo-1,3-dihydro-isoindol-2-yl]-acetyl}-2-ethoxycarbonylmethoxy-phenoxy)-acetic acid ethyl ester], the melting point was 168 to 169 °C.

In turn, `COC(=O)NC(=N)c1ccc2c(c1)CN(CC(=O)c1ccc(OCC(=O)OCc3ccccc3)cc1)C2=O` (hydrate or solvate) [Example 18, (4-{2-[5-(Imino-methoxycarbonylamino-methyl)-1-oxo-1,3-dihydro-isoindol-2-yl]-acetyl}-phenoxy)-acetic acid benzyl ester] registered a melting point of 184 to 186 °C.

Consider `CC(C)COC(=O)NC(=N)c1ccc2c(c1)CN(CC(=O)c1ccc(OCC(=O)OCc3ccccc3)cc1)C2=O` (hydrate or solvate) [Example 19, (4-{2-[5-(Imino-isobutoxycarbonylamino-methyl)-1-oxo-1,3-dihydro-isoindol-2-yl]-acetyl}-phenoxy)-acetic acid benzyl ester], for which the melting point fell in the range of 162 to 163 °C.

`CCOC(=O)COc1ccc(O)c(C(=O)CN2Cc3cc(C(=N)NO)ccc3C2=O)c1` [Example 61, (4-Hydroxy-3-{2-[5-(N-hydroxycarbamimidoyl)-1-oxo-1,3-dihydro-isoindol-2-yl]-acetyl}-phenoxy)-acetic acid ethyl ester] showed a melting point of 158 to 159 °C.

`CCOC(=O)COc1ccc(C(=O)CN2Cc3cc(C(=N)NO)ccc3C2=O)c(O)c1CC` [Example 57, (2-Ethyl-3-hydroxy-4-{2-[5-(N-hydroxycarbamimidoyl)-1-oxo-1,3-dihydro-isoindol-2-yl]-acetyl}-phenoxy)-acetic acid ethyl ester] came in with a melting point of 196 to 197 °C.

In turn, `CCOC(=O)COc1ccc(C(=O)CN2Cc3cc(C(=N)NO)ccc3C2=O)cc1Cl` [Example 32, (2-Chloro-4-{2-[5-(N-hydroxycarbamimidoyl)-1-oxo-1,3-dihydro-isoindol-2-yl]-acetyl}-phenoxy)-acetic acid ethyl ester] registered a melting point of 201 to 202 °C.

On to `CCOC(=O)COc1ccc(C(=O)CN2Cc3cc(C(=N)NO)ccc3C2=O)c(O)c1C` (hydrate or solvate) [Example 55, (3-Hydroxy-4-{2-[5-(N-hydroxycarbamimidoyl)-1-oxo-1,3-dihydro-isoindol-2-yl]-acetyl}-2-methyl-phenoxy)-acetic acid ethyl ester], for which the melting point fell in the range of 226 to 228 °C.

Turning to `N=C(N)c1ccc2c(c1)CN(CC(=O)c1ccc(OCC(=O)OCc3ccccc3)cc1)C2=O` (as salt: salt) (hydrate or solvate) [Example 16, (4-{2-[5-Carbamimidoyl-1-oxo-1,3-dihydro-isoindol-2-yl]-acetyl}-phenoxy)-acetic acid benzyl ester], the melting point is 190 °C (dec.).

Consider `CCOC(=O)COc1cc(O)c(C(=O)CN2Cc3cc(C(=N)NO)ccc3C2=O)c(OC)c1` [Example 62, (3-Hydroxy-4-{2-[5-(N-hydroxycarbamimidoyl)-1-oxo-1,3-dihydro-isoindol-2-yl]-acetyl}-5-methoxy-phenoxy)-acetic acid ethyl ester], for which the melting point is 209 to 210 °C.

Compound `Cc1c(OCC(=O)OCc2ccccc2)ccc(C(=O)CN2Cc3cc(C(=N)NO)ccc3C2=O)c1O` (hydrate or solvate) [Example 56, (3-Hydroxy-4-{2-[5-(N-hydroxycarbamimidoyl)-1-oxo-1,3-dihydro-isoindol-2-yl]-acetyl}-2-methyl-phenoxy)-acetic acid benzyl ester] displayed a melting point of 200 °C.

On to `CCOC(=O)COc1ccc(C(=O)CN2Cc3cc(C(=N)NO)ccc3C2=O)c(OCC(=O)OCC)c1` [Example 48, (3-Ethoxycarbonylmethoxy-4-{2-[5-(N-hydroxycarbamimidoyl)-1-oxo-1,3-dihydro-isoindol-2-yl]-acetyl}-phenoxy)-acetic acid ethyl ester], for which the melting point was in the range of 139 to 140 °C.

In the case of `CCOC(=O)COc1ccc(C(=O)CN2Cc3cc(C(=N)NO)ccc3C2=O)c(OCC)c1` [Example 75, (3-Ethoxy-4-{2-[5-(N-hydroxycarbamimidoyl)-1-oxo-1,3-dihydro-isoindol-2-yl]-acetyl}-phenoxy)-acetic acid ethyl ester], the melting point lay in the range of 192 to 194 °C.

`N=C(N)c1ccc2c(c1)CN(CC(=O)N1CCC(OCC(=O)O)CC1)C2=O` (as salt: hydrochloride) (hydrate or solvate) [Example 73, (1-{2-[5-Carbamimidoyl-1-oxo-1,3-dihydro-isoindol-2-yl]-acetyl}-piperidin-4-yloxy)-acetic acid] yielded a melting point of 135 to 136 °C.

As for `CCOC(=O)COC1CCN(C(=O)CN2Cc3cc(C(=N)N)ccc3C2=O)CC1` (as salt: salt) (hydrate or solvate) [Example 71, (1-{2-[5-Carbamimidoyl-1-oxo-1,3-dihydro-isoindol-2-yl]-acetyl}-piperidin-4-yloxy)-acetic acid ethyl ester], the melting point lay in the range of 189 to 190 °C.

The compound `CC(C)OC(=O)COc1ccc(C(=O)CN2Cc3cc(C(=N)NO)ccc3C2=O)cc1` (hydrate or solvate) [Example 9, (4-{2-[5-(N-Hydroxycarbamimidoyl)-1-oxo-1,3-dihydro-isoindol-2-yl]-acetyl}-phenoxy)-acetic acid isopropyl ester] returned a melting point of 164 to 166 °C.

For the compound `CCOC(=O)COc1ccc(C(=O)CN2Cc3cc(C(=N)N)ccc3C2=O)cc1S(=O)(=O)CC` (as salt: salt) (hydrate or solvate) [Example 35, (4-{2-[5-Carbamimidoyl-1-oxo-1,3-dihydro-isoindol-2-yl]-acetyl}-2-ethanesulfonyl-phenoxy)-acetic acid ethyl ester], the melting point was in the range of 174 to 175 °C.

The compound `CCOC(=O)COc1ccc(C(=O)CN2Cc3cc(C(=N)NC(=O)OCC(C)C)ccc3C2=O)cc1Cl` [Example 31, (2-Chloro-4-{2-[5-(imino-isobutoxycarbonylamino-methyl)-1-oxo-1,3-dihydro-isoindol-2-yl]-acetyl}-phenoxy)-acetic acid ethyl ester] showed a melting point of 178 to 179 °C.

Take `CCOC(=O)COc1ccc(C(=O)CN2Cc3cc(C(=N)NO)ccc3C2=O)c(OC)c1` [Example 45, (4-{2-[5-(N-Hydroxycarbamimidoyl)-1-oxo-1,3-dihydro-isoindol-2-yl]-acetyl}-3-methoxy-phenoxy)-acetic acid ethyl ester]: the melting point was 163 to 165 °C.
